{"source": "patent US20180206518A1", "about": "“METHOD OF MAKING CANNABIS OIL H[…] E[…] RELATED CANNABINOID COMPOSITIONS” (priority 2016, published 2018)", "origin": "cited, not measured here", "settings": "edible cannabis products, depending on liver function"}
{"smiles": "CCCCCc1cc(O)c2c(c1)OC(C)(C)[C@@H]1CCC(C)=CC21", "note": "(stereo partly shown) [THC, Δ9-tetrahydrocannabinol]", "values": [{"measurement": "THC able to be metabolized", "result": "2-6%"}]}
